Experimental findings from ChEMBL document CHEMBL1145498, “A systematic interaction map of validated kinase inhibitors with Ser/Thr kinases” (Proc Natl Acad Sci U S A, 2007) are described below.

Assay [1] concerns the target Casein kinase I isoform gamma-3 (Homo sapiens) (UniProt Q9Y6M4).
The target of assay [2] is Casein kinase I isoform gamma-1 (Homo sapiens) (UniProt Q9HCP0).
The target of assay [3] is Calcium/calmodulin-dependent protein kinase type II subunit delta (Homo sapiens) (UniProt Q13557).
Sequence of Calcium/calmodulin-dependent protein kinase type II subunit delta (Homo sapiens) (Q13557 whole entry): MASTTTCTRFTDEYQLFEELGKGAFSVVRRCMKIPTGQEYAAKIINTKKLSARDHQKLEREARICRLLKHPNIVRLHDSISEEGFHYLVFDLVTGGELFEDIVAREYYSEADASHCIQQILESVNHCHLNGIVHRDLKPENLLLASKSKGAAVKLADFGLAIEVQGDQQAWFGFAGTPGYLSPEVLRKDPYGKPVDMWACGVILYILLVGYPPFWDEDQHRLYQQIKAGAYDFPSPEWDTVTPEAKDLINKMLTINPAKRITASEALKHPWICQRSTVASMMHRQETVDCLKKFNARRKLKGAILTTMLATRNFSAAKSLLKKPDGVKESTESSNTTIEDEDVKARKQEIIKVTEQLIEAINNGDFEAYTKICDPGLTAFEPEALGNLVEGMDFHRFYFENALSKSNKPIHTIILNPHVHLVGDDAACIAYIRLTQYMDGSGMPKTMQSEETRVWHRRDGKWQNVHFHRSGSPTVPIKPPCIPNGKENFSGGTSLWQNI
Assay [4] addresses Cyclin-dependent kinase-like 1 (Homo sapiens) (UniProt Q00532).
The target in assay [5] is Dual specificity protein kinase CLK1 (Homo sapiens) (UniProt P49759).
Sequence of Dual specificity protein kinase CLK1 (Homo sapiens) (P49759 whole entry, looked up): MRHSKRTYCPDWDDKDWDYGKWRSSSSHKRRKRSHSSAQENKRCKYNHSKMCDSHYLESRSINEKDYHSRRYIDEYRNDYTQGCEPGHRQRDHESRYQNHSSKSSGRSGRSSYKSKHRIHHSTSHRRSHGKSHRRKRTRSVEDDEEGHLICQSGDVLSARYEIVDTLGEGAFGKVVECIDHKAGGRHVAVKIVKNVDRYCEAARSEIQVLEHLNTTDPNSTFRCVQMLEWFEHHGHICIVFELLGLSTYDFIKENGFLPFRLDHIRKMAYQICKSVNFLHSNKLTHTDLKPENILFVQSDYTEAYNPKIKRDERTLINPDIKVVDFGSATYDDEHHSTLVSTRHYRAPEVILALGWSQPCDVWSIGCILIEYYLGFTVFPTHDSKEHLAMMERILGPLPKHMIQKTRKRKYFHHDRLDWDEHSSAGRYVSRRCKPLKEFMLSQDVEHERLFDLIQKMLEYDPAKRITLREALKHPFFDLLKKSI
For assay [6], the target named is Calcium/calmodulin-dependent protein kinase type II subunit alpha (Homo sapiens) (UniProt Q9UQM7).
Sequence of Calcium/calmodulin-dependent protein kinase type II subunit alpha (Homo sapiens) (Q9UQM7 whole entry): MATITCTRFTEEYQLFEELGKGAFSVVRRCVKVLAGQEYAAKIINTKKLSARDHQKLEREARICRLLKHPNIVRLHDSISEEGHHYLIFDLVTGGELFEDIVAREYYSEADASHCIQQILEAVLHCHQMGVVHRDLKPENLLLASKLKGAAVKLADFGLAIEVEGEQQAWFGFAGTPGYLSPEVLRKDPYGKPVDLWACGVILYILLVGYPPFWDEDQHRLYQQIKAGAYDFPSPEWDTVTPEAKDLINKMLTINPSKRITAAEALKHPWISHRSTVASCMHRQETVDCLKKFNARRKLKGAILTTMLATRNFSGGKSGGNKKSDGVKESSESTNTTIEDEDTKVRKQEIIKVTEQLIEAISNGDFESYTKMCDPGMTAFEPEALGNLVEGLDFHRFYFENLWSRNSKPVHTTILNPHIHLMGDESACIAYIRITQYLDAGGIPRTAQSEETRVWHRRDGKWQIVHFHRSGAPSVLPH
For assay [7], the target named is Serine/threonine-protein kinase VRK2 (Homo sapiens) (UniProt Q86Y07).
Sequence of Serine/threonine-protein kinase VRK2 (Homo sapiens) (Q86Y07 whole entry): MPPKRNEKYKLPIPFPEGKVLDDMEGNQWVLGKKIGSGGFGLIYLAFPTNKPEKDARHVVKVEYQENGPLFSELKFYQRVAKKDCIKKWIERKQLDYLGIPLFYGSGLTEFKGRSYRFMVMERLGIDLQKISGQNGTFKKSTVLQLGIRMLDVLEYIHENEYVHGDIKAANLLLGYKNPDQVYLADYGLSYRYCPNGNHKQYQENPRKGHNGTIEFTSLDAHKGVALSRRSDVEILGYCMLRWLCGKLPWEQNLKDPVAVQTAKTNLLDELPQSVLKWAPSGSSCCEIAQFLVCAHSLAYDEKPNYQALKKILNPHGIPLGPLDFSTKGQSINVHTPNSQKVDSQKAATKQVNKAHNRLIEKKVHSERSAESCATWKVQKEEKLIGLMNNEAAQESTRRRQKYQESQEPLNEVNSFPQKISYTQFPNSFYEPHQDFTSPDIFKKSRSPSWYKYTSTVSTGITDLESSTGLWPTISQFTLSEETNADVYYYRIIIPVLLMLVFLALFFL
Assay [8] concerns the target Dual specificity protein kinase CLK2 (Homo sapiens) (UniProt P49760).
Assay [9] addresses Calcium/calmodulin-dependent protein kinase kinase 2 (Homo sapiens, UniProt Q96RR4).
Assay [10] concerns the target T1, Serine/threonine-protein kinase PLK4 (Homo sapiens) (UniProt O00444).
T1 sequence (whole entry): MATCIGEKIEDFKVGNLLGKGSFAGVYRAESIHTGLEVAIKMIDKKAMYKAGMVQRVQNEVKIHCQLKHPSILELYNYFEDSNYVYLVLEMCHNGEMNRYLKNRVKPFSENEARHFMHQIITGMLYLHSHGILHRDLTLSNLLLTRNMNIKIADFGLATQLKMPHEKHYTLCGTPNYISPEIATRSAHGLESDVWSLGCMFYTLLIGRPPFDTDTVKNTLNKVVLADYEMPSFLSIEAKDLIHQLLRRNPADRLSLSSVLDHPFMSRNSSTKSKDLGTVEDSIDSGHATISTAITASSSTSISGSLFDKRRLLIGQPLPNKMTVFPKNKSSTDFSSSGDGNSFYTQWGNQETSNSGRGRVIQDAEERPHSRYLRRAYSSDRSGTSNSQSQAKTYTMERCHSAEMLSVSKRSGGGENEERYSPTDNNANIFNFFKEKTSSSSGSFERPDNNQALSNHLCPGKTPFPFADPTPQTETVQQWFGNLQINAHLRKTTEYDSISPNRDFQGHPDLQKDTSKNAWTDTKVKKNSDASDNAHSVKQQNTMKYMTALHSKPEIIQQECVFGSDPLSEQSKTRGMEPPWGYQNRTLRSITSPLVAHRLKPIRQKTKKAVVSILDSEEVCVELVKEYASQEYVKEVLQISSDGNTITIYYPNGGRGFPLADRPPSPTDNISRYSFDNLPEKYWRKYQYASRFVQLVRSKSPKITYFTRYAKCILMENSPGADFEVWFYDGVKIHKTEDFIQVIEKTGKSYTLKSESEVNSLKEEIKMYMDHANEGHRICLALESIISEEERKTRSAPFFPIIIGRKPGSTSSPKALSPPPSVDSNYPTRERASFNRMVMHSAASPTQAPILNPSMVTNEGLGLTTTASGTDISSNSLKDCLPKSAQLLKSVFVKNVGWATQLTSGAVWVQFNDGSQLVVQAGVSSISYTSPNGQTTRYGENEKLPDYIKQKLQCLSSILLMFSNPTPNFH

The target of assay [11] is T2, 3-phosphoinositide-dependent protein kinase 1 (Homo sapiens) (UniProt O15530).
T2 sequence (whole entry): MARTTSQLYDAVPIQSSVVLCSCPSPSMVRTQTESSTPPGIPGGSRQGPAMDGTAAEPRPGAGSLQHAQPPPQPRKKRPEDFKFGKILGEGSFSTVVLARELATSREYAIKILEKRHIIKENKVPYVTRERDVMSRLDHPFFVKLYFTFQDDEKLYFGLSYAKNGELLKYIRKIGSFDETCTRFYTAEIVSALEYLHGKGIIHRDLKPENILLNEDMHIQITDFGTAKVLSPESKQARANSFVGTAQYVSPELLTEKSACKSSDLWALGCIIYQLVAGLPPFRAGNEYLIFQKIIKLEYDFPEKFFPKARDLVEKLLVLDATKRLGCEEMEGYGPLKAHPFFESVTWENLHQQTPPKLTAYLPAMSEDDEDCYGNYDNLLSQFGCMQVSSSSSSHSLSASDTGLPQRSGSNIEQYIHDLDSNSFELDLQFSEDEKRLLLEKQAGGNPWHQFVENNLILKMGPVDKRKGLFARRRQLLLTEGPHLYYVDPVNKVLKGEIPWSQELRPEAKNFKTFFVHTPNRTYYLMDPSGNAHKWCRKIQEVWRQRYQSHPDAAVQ

Assay [12] addresses Dual specificity protein kinase CLK3 (Homo sapiens) (UniProt P49761).
Assay [13] deals with Serine/threonine-protein kinase 25 (Homo sapiens) (UniProt O00506).
Sequence of Serine/threonine-protein kinase 25 (Homo sapiens) (O00506 whole entry, looked up): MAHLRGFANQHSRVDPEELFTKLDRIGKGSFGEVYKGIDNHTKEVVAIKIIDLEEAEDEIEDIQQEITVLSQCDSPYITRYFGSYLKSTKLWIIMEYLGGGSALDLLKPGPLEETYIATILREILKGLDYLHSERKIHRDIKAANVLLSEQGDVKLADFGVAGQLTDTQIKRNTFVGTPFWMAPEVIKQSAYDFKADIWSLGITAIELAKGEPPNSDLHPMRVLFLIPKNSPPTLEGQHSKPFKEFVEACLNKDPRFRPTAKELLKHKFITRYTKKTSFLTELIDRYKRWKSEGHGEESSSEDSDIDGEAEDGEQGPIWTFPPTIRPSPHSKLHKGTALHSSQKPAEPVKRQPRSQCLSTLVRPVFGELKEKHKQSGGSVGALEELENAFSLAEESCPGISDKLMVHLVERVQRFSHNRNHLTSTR
Assay [14] deals with Serine/threonine-protein kinase Nek6 (Homo sapiens) (UniProt Q9HC98).
Sequence of Serine/threonine-protein kinase Nek6 (Homo sapiens) (Q9HC98 whole entry): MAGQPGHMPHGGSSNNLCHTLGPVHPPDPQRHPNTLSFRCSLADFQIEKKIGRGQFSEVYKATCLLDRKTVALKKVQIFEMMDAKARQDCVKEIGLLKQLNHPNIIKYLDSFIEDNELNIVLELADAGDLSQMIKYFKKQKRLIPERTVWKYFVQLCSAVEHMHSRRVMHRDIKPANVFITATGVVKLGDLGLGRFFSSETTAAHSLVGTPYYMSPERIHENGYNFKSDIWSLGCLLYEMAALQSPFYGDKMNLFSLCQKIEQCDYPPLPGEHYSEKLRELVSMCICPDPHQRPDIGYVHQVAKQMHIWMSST
Assay [15] concerns the target Serine/threonine-protein kinase OSR1 (Homo sapiens) (UniProt O95747).
Assay [16] has as its target Serine/threonine-protein kinase 16 (Homo sapiens) (UniProt O75716).
Assay [17] addresses T3, Serine/threonine-protein kinase 17A (Homo sapiens) (UniProt Q9UEE5).
T3 sequence (whole entry): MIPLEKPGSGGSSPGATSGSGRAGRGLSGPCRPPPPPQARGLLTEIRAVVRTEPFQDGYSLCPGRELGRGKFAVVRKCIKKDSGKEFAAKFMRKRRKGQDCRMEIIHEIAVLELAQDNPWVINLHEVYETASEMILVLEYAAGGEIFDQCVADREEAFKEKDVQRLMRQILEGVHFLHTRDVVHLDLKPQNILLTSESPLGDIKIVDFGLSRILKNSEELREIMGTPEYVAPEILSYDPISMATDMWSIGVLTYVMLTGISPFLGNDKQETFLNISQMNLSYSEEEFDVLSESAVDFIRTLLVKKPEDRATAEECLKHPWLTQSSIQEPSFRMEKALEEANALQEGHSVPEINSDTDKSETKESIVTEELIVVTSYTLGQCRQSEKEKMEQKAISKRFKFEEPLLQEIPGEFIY

Each structure is given as a SMILES string.

Sequence of Casein kinase I isoform gamma-1 (Homo sapiens) (Q9HCP0 whole entry, looked up, canonical isoform): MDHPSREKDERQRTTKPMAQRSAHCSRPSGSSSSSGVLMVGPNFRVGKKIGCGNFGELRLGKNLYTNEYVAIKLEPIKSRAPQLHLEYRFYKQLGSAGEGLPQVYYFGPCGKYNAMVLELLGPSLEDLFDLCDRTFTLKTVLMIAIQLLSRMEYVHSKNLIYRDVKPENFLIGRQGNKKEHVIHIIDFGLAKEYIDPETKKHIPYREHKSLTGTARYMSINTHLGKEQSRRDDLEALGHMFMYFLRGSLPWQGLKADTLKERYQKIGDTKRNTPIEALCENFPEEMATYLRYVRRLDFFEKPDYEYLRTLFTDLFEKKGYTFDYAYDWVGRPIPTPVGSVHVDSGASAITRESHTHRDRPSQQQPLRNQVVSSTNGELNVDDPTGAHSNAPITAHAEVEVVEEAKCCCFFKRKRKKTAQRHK
Sequence of Serine/threonine-protein kinase OSR1 (Homo sapiens) (O95747 2-527 limits assumed): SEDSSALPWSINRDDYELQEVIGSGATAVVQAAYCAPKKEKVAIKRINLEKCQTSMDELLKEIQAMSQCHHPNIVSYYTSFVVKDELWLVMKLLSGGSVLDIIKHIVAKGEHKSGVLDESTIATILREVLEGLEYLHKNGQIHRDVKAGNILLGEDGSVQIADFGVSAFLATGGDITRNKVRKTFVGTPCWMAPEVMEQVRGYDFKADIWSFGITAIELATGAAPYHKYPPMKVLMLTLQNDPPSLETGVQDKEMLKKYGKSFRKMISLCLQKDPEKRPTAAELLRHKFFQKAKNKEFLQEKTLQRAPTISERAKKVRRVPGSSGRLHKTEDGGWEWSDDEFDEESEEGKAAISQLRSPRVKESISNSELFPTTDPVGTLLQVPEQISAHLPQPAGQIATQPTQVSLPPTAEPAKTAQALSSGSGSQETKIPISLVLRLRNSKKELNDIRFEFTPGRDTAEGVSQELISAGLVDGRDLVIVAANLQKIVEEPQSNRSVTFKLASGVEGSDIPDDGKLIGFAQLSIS
Sequence of Casein kinase I isoform gamma-3 (Homo sapiens) (Q9Y6M4 whole entry, looked up, canonical isoform): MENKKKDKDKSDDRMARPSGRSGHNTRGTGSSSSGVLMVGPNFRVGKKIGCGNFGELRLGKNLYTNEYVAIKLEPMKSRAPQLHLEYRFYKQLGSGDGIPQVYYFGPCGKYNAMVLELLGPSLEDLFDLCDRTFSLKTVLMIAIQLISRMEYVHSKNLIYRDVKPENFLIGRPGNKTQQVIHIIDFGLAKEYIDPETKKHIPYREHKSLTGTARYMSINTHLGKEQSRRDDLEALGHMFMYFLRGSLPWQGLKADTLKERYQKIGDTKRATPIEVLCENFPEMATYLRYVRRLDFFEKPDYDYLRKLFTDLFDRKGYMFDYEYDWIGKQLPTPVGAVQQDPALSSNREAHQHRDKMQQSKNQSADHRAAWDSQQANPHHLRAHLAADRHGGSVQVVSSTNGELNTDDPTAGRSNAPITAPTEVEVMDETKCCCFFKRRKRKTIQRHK
Sequence of Dual specificity protein kinase CLK2 (Homo sapiens) (P49760 whole entry, looked up): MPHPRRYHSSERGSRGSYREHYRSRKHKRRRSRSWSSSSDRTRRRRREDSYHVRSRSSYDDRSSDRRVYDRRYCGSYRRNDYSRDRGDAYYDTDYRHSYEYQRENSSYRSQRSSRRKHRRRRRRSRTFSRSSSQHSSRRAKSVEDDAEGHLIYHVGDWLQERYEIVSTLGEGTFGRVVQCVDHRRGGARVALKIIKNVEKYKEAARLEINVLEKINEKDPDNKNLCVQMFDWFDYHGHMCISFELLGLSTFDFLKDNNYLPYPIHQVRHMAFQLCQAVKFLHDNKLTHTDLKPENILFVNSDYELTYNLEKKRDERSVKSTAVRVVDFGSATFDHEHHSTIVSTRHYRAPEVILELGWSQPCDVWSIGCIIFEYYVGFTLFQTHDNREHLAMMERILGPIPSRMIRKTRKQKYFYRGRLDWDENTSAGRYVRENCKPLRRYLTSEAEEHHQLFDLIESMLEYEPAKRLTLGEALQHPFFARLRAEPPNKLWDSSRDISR
Sequence of Serine/threonine-protein kinase 16 (Homo sapiens) (O75716 whole entry): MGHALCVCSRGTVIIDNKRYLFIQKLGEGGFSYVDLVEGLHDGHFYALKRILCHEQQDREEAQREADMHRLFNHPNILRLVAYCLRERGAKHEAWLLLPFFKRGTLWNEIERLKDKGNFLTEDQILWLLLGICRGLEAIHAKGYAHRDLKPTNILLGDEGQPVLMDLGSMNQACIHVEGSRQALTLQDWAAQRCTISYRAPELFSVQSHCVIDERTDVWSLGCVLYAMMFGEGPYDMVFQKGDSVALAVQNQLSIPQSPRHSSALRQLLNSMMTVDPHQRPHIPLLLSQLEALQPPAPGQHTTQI

Consider `C/C(O)=C(\C#N)C(=O)Nc1cc(Br)ccc1Br`, for which the ΔTm was found to be 0.3 °C in assay [1]; 0.7 °C in [2]; 0.5 °C in assay [3]; 0.8 °C in assay [4]; 0.5 °C in [5]; 0.1 °C in assay [6]. In addition, the thermal shift (ΔTm) in [7] was 0.1 °C; in assay [8] it was 0.5 °C; in assay [9] it was -0.1 °C; in assay [10] it was 1.1 °C; in assay [11], -3.7 °C; in assay [12] it was 0.3 °C. Moreover, the ΔTm is -0.1 °C in assay [13]; -0.2 °C in [14]; 1.1 °C in assay [15]; 0.4 °C in assay [16]; 0.6 °C in assay [17].

Regarding `COc1cc(/C=C/C(=O)CC(=O)/C=C/c2ccc(O)c(OC)c2)ccc1O` [CURCUMIN], the thermal shift (ΔTm) was 0.3 °C in assay [1]; 4.5 °C in assay [2]; 0.1 °C in assay [3]; 3.9 °C in [4]; 7.9 °C in assay [5]; -0.1 °C in assay [6]. Further, the ΔTm in [7] stood at 1.4 °C; in assay [8] it was 2.6 °C; in assay [9] it was 6.1 °C; in assay [10], 3.3 °C; in assay [11], 0.2 °C; in assay [12], 3.6 °C. Also, the ΔTm in assay [13] was determined as 4.4 °C; in [14], 0.9 °C; in [15] it was 3.7 °C; in [16], 0.9 °C; in assay [17], 7.4 °C.

`Cn1cnc2c(NCc3ccccc3)nc(NCCO)nc21` [OLOMOUCINE]: the ΔTm in assay [1] is 0 °C; in assay [2], 0.1 °C; in assay [3] it was -0.2 °C; in [4], 0 °C; in [5], -0.2 °C; in [6], -0.3 °C. In addition, the ΔTm in assay [7] was 0.2 °C; in [8], 0.1 °C; in assay [9], -0.2 °C; in assay [10], 0.2 °C; in assay [11], 0 °C; in [12], -0.1 °C. Moreover, the ΔTm in assay [13] is 0 °C; in [14], 0 °C; in assay [15] it was 0.2 °C; in [16], 0.7 °C; in assay [17] it was -0.1 °C.

For the molecule `Cc1c2ccncc2c(C)c2c1[nH]c1ccccc12` [ELLIPTECINE], the thermal shift (ΔTm) was 0.7 °C in assay [1]; 0.6 °C in assay [2]; -0.3 °C in assay [3]; 0.7 °C in assay [4]; 6.6 °C in assay [5]; 2.2 °C in assay [6]. Besides, the ΔTm is -0.7 °C in assay [7]; 3.3 °C in [8]; 1.3 °C in [9]; 3.3 °C in assay [10]; 8.6 °C in [11]; 4.2 °C in assay [12]. Besides, the ΔTm was 2.5 °C in assay [14], 0.3 °C in assay [15], 10.7 °C in assay [16] and 0.8 °C in assay [17].

As to `O=C1NC(=O)C(c2cn(CCCn3ccnc3)c3ccccc23)=C1Nc1ccccc1`, the ΔTm in assay [1] is 0.5 °C; in assay [2], 0.6 °C; in [3], 0.1 °C; in assay [4], 0.3 °C; in assay [5], 5.8 °C; in assay [6] it was 1.7 °C. The thermal shift (ΔTm) in [7] worked out at 0.4 °C; in assay [8], 4.3 °C; in assay [9] it was 3.8 °C; in assay [10], 0.8 °C; in assay [11] it was 0.1 °C; in assay [12] it was 3 °C. Besides, the ΔTm in [14] was -0.1 °C; in assay [15], 0.2 °C; in [16] it was 0.6 °C; in [17], 0.5 °C.

`COc1nccc(-c2c(-c3ccc(F)cc3)ncn2[C@H]2CC[C@H](O)CC2)n1`: the ΔTm in assay [1] was 1.2 °C; in [2], 0.9 °C; in assay [3], 0.4 °C; in assay [4], -1 °C; in assay [5], 1.7 °C; in assay [6] it was 1.5 °C. Moreover, the ΔTm in assay [7] is 0.8 °C; in assay [8], 0.8 °C; in assay [9], -0.6 °C; in assay [10] it was 0.1 °C; in [11], 0 °C; in assay [12], 0.1 °C. The ΔTm was -0.3 °C in [14], 0.1 °C in assay [15], -0.2 °C in assay [16] and 0 °C in assay [17].

`O=C(O)c1cc(N(Cc2ccccc2O)Cc2cc(O)ccc2O)ccc1O` [LAVENDUSTIN A]: the ΔTm is 0.8 °C in [1]; 1.4 °C in assay [2]; 0.3 °C in assay [3]; -0.3 °C in assay [4]; 0.5 °C in [5]; 1.3 °C in assay [6]. Further, the ΔTm is -0.6 °C in assay [7]; 0.5 °C in assay [8]; 0.5 °C in assay [9]; 1.1 °C in assay [10]; 0.6 °C in [11]; 0.3 °C in [12]. Further, the ΔTm is 0.4 °C in assay [14], -0.1 °C in assay [15], 2.6 °C in assay [16] and 0.1 °C in assay [17].

As for `Nc1cccc(-c2cc3c(Oc4cccc(O)c4)ncnc3[nH]2)c1`, the ΔTm in [1] came out at 1 °C; in assay [2], 1.5 °C; in assay [3], 0.1 °C; in assay [4], 0.6 °C; in assay [5], 1.8 °C; in assay [6] it was 0.5 °C. Moreover, the shift in melting temperature (ΔTm) was 0.5 °C in assay [7]; 0.4 °C in [8]; 1.4 °C in assay [9]; 0.8 °C in assay [10]; -0.1 °C in assay [11]; 0.9 °C in assay [12]. The ΔTm in assay [14] is -1.3 °C; in assay [15] it was 1.7 °C; in [16] it was 3.5 °C; in assay [17], 0.9 °C.

With `CC[C@H](CO)Nc1nc(NCc2ccccc2)c2ncn(C(C)C)c2n1` [SELICICLIB], the thermal shift (ΔTm) in [3] was determined as 0.1 °C; in assay [4] it was 0.2 °C; in [5], 2.1 °C; in assay [7], 2.1 °C; in assay [8] it was 2.3 °C; in assay [9], 0.3 °C. In addition, the ΔTm in assay [10] is 0.3 °C; in assay [11] it was 0.2 °C; in [12] it was 0.8 °C; in assay [13], 0.3 °C; in [15] it was 1 °C; in [17] it was -0.5 °C.
